# Measurements: patent publication US20250326723A1, “Development of an Enzyme-Inhibitor Reaction Using Cellular Retinoic Acid Binding Protein II for One-Pot Megamolecule Assembly” (NORTHWESTERN UNIVERSITY, priority 2021, published 2025)
# How the values were obtained:
# [1] = system: fusion protein containing SnapTag and cutinase domains (CS); assay: Cross-reactivity of SnapTag and cutinase protein domains with the fluorescent CrabTag inhibitor, SDS-PAGE; type: biochemical; settings: CS 10 μM, linker 1 equiv., 25° C. in PBS; CrabTag protein added next day
# Text: FIG. 18A illustrates orthogonality of enzyme-inhibitor pairs in the megamolecule assembly toolbox. A Coomassie stain with brightfield view of SDS-PAGE. Lane 1: CRABP2 (R) protein domain (MW, −16 kDa). Lane 2: Reaction of CRABP2 with fluorescent linker 11. Lane 3: Cutinase-SnapTag (CS) fusion protein (MW, −45 kDa). Lane 4: CS with the CrabTag fluorescent inhibitor. Lane 5: CS with the di-cutinase PEG11 linker to yield a di-CS megamolecule (MW, −90 kDa). Lane 6: CS with the di-SnapTag PEG11 linker to yield a di-CS megamolecule (MW, −90 kDa). Lanes 7-8: CS was first mixed with the CrabTag fluorescent inhibitor for two hours. Afterwards, the di-cutinase PEG11 or the di-SnapTag PEG11 linker was added, forming the di-CS megamolecule (MW, −90 kDa). The next day, the R protein was added to form the fluorescent band shown in the fluorescent SDS-PAGE. Lanes 9-10: R was first mixed with either the di-cutinase PEG11 or the di-SnapTag PEG11 linker for two hours, followed by the addition of the CS fusion protein to form the di-CS megamolecule (MW, −90 kDa). The following day, the fluorescent CrabTag linker was added to form the fluorescent band shown in the fluorescent SDS-PAGE. […]
# The orthogonality of the CrabTag enzyme-inhibitor system was examined against our existing two chemistries, cutinase and SnapTag. […] All reactions were imaged by SDS-PAGE using both fluorescence and Coomassie stain.
# [2] = molecular target: T1, CrabTag protein domain (CRABP2) (Homo sapiens, UniProt P29373); assay: Stability of the covalent CrabTag-linker adduct over two weeks, fluorescent SDS-PAGE; type: physicochemical
# T1 construct: made in house; host or cells: E. coli T7 SHuffle Express
# T1 sequence (P29373 with tags, fused parts or gaps): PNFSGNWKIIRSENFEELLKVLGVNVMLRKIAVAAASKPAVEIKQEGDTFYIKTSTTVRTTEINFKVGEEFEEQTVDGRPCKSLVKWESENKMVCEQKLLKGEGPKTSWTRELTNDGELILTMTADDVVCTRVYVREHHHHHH
# [3] = molecular target: T1, CrabTag protein domain (CRABP2); assay: Quantification of reaction kinetics for CRABP2 (CrabTag) covalent modification, fluorescent SDS-PAGE; type: biochemical
# Procedure: The present disclosure provides a method for synthesizing linker 11, which includes a fluorophore to characterize the kinetics for reaction of the covalent inhibitor and CrabTag, as shown in FIG. 10A. The inventors have run parallel reactions that varies the concentration of the linker (2, 5, 10, 20, 40, 65, and 100 μM) at a constant concentration of CrabTag (1 μM) and stops the reactions using Laemmli reducing buffer at times ranging from 0 to 120 seconds, as shown in FIG. 10B. […] The inventors have separated the reaction products with SDS-PAGE and quantitated the mean fluorescence intensity of protein bands that corresponded to the adduct with ImageJ. […]
# The inventors synthesized linker 11, which included a fluorophore to characterize the kinetics for reaction of the covalent inhibitor and CrabTag as shown in FIG. 10A The inventors ran parallel reactions that varied the concentration of the linker (2, 5, 10, 20, 40, 65, and 100 μM) at a constant concentration of CrabTag (1 μM) and stopped the reactions using Laemmli reducing buffer at times ranging from 0 to 120 seconds as shown in FIG. 10B. […] The inventors separated the reaction products with SDS-PAGE and quantitated the mean fluorescence intensity of protein bands that corresponded to the adduct with ImageJ. […]
# CrabTag (CRABP2) = molecular target: T2, CrabTag (CRABP2) (Homo sapiens, UniProt P29373); assay: Intact protein ESI-MS of CrabTag-inhibitor complexes; type: binding; settings: CrabTag 1 μM, inhibitor 5 μM, 5 minutes
# T2 construct: made in house; host or cells: E. coli T7 SHuffle Express
# T2 sequence (P29373 2-138): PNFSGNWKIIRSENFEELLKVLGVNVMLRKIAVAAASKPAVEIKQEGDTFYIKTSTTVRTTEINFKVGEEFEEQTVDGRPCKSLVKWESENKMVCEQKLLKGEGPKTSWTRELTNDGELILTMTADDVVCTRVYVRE
# Procedure: FIG. 3 illustrates ESI-MS deconvoluted spectra with expected and observed molecular weights for CrabTag with a N-terminal Histag. Top: Purified CrabTag protein with the N-terminal histag and TEV protease recognition sequence (R, Black). Bottom: Adduct from reaction of R (0.1 nmol, 1 μM) with an inhibitor of the disclosure having a structure according to Formula 10 (5 eq., 5 μM) (Red). The reaction occurred in 100 μL of 1×PBS for 5 minutes before being stopped by addition of formic acid in preparation for ESI-MS.
# FIG. 4 illustrates intact protein ESI-MS for CrabTag-inhibitor complexes. Reactions of C-terminal Histag R (1 μM, 1 equivalent) with either an inhibitor of the disclosure having a structure according to Formula 10 (5 μM, 5 equivalents) or an inhibitor of the disclosure having a structure according to Formula 11 (5 μM, 5 equivalents) occurred for 5 minutes before being stopped with formic acid.
# Megamolecules were prepared for LC-MS analysis and evaluation using ESI-MS. Reaction time points were taken by quenching the sample with 0.1% formic acid. The preparation involved the desalting and dilution of the multi-protein assembly to 1 μM in nuclease free water. […] Spectra data were analyzed with Agilent MassHunter Qualitative Analysis software to reveal m/z data. […]
# CRABP2 = molecular target: T3, CRABP2 (Homo sapiens, UniProt P29373); assay: X-ray crystal structure of the CRABP2-10 covalent complex; type: binding; settings: 1.8 Å structure
# T3 construct: His6 (N); made in house; host or cells: E. coli T7 SHuffle Express
# T3 sequence (P29373 with tags, fused parts or gaps): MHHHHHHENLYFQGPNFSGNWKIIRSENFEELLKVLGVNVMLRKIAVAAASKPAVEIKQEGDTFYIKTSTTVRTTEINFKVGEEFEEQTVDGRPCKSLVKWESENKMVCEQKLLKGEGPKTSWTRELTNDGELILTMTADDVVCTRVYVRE
# Procedure: CRABP2 protein (1000 nmol, 100 μM) was reacted with inhibitor 10 (500 μM, 5 equivalents) in PBS for about 1-50 hours, about 6-20 hours, about 10-18 hours, about 12-16 hours, or about 16 hours. The protein-inhibitor adduct was then purified using SEC and the fractions containing the adduct were pooled, dialyzed, and concentrated to 12 mg/mL (1.275 mL total) using a Centrifugal Filter Unit. […]
# Data Processing, Structure Determination and Model Refinement. […] Diffraction data were measured at the Life Sciences Collaborative Access beamlines at Sector 21 of the Advanced Photon Source at Argonne National Laboratory, indexed, integrated and scaled with HKL2000.^4 All subsequent work was conducted using the CCP4 suite of programs.^5 The space group and unit cell parameters were confirmed with Pointless.^6 The structure was determined by molecular replacement with PhaserMR, using a single monomer of Human Cellular Retinoic Acid Binding Protein II (CRABPII) (PDB: 6HKR) with ligands and water molecules removed as the initial phasing model. […]
Compound,reactivity of the CrabTag linker after incubation with CS fusion protein [1],"protein domains retaining covalent occupancy of the linker (normalized covalent occupancy) ([2]; 1 μM in PBS, 25° C. (room temperature), after two weeks)","second order rate constant for the covalent modification reaction, keff ([3]; CrabTag 1 μM, linker 2-100 μM, times 0 to 120 seconds, ratio of ki and KI)",adduct stoichiometry by intact mass spectrometry (CrabTag (CRABP2)),"enzyme-inhibitor complex stable (bound) ([2]; room temperature, over two weeks)",residue covalently modified in crystal structure (CRABP2),effective rate constant of the inhibition reaction ([3]; CrabTag inhibition reaction)
"CC1(C)CCN(C(=O)CCC(=O)NCCOCCOCCOCCOCCOCCOCCOCCOCCOCCOCCOCCNC(=O)CCCCCNC(=O)c2ccc3c(c2)C(=O)OC32c3ccc(O)cc3Oc3cc(O)ccc32)c2ccc(C#Cc3ccc(OS(=O)(=O)F)cc3)cc21 [linker 11, Bi-EG(11)-(CrabTag Ligand, Fluorescein)]",maintained selective reactivity with the CrabTag enzyme,over 95%,(3.6±0.5)×10^3 M^−1s^−1,monomeric adducts with only one modification,,,
"CC1(C)CCN(C(=O)CCC(=O)O)c2ccc(C#Cc3ccc(OS(=O)(=O)F)cc3)cc21 [inhibitor 10, 4-(6-((4-((fluorosulfonyl)oxy)phenyl)ethynyl)-4,4-dimethyl-3,4-dihydroquinolin-1(2H)-yl)-4-oxobutanoic acid]",,,,monomeric adducts with only one modification,> 95%,selectively modifies Tyr135,"approximately 3,600 M^−1s^−1"
